Assay results reported in ChEMBL document CHEMBL1201862, “PubChem BioAssay data set” (2004).
Where a name gives a salt, the structure may show the parent alone. The source made the active and inactive calls. Cut-off read from the data, not from the text of the source, for most assays here: actives have a measured EC50 and inactives only a lower limit. Non-standard residues stand in square brackets, D forms with d. Residues, ends and D or L forms follow the SMILES beside them. ξ: configuration not given here. Pen = CC(C)(S)[C@H](N)C(=O)O; ξL = CC(C)CC(N)C(=O)O

Columns and labels:
[1] = molecular target: T1, Heat shock factor protein 1 (Mus musculus, UniProt P38532); assay: enhancement of HSF1-driven luciferase signal – cell-based, NIH3T3, luminescence, dose retest, confirmation (AID 435004); assay type: functional;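 note: stress induced by proteasome inhibitor MG132 added 30 min after compound; luciferase reporter driven by HSF1 response element in NIH3T3 cells; actives raise luminescence as potentiators of the MG132 stress response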
T1 sequence (P38532 whole entry): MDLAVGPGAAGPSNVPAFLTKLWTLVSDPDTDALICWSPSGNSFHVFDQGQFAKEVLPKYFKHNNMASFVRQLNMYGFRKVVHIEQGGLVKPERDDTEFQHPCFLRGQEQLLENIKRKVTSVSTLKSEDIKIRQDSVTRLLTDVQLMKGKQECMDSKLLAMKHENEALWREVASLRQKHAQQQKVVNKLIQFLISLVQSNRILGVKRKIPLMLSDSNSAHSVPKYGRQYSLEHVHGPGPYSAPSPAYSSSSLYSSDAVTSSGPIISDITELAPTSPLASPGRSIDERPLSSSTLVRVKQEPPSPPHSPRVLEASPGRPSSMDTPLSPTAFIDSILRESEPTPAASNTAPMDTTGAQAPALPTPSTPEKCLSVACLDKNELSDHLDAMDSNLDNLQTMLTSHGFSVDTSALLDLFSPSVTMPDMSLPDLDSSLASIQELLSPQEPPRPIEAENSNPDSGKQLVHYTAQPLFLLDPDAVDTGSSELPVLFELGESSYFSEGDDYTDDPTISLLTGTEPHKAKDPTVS

Vero = assay: cells; assay type: functional; conditions: Chlorocebus sabaeus
H4 = assay: Luminescence Cell-Based Dose Response HTS to Identify Activators of 5'UTR Stem-Loop Driven Prion Protein mRNA Translation in H4 Neuroglioblastoma Cells. [Related pubchem assays: 1829 (Project Summary), 1814 (Primary HTS)]; assay type: functional; conditions: Homo sapiens
[2] = molecular target: T1, Heat shock factor protein 1; assay: decrease of HSF1-responsive luciferase luminescence – cell-based, NIH3T3, dose retest, confirmation (AID 2382); assay type: functional;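 note: NIH3T3 fibroblasts with HSF1-driven luciferase reporter stressed by proteasome inhibitor MG132; luminescence from HSF1-driven luciferase expression after 8 hours of MG132 stress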
[3] = Luminescence Cell-Based Dose Response HTS to Identify Activators of Luciferase Translation or Activity in H4 […] Cells. [Related pubchem assays: 1829 (Project Summary), 1814 (Primary HTS)]; assay type: functional
[4] = Luminescence Cell-Based Dose Confirmation HTS to Identify Activators of 5'UTR Stem-Loop Driven Alpha-Synuclein mRNA Translation in H4 Neuroglioblastoma Cells. [Related pubchem assays: 1829 (Project Summary), 1814 (Primary HTS)]; assay type: functional
[5] = Luminescence Cell-Based Dose Confirmation HTS to Identify Inhibitors of Platelet Dense Granule Release. [Related pubchem assays: 1663 (Primary HTS), 1678 (Summary of Project)]; assay type: functional
[6] = molecular target: Luciferin 4-monooxygenase (Photinus pyralis, UniProt P08659); assay: inhibition of purified Photinus pyralis luciferase – biochemical, luminescence, dose response (AID 1891)
Chain of Luciferin 4-monooxygenase (P08659 whole entry): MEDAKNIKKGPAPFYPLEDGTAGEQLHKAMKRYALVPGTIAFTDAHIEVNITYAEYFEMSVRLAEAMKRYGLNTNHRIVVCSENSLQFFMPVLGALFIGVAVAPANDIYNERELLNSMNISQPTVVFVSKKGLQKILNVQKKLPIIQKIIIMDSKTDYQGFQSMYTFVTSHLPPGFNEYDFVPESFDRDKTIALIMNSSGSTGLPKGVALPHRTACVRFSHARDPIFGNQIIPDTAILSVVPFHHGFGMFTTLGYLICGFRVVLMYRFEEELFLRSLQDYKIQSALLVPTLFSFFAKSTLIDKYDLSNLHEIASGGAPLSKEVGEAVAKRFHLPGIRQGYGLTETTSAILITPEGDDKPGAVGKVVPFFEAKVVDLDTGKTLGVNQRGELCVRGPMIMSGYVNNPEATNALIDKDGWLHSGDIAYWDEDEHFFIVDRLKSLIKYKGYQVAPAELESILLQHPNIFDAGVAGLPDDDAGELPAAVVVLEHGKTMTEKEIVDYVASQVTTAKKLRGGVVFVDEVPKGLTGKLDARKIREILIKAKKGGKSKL

[7] = molecular target: T2, Microphthalmia-associated transcription factor (Homo sapiens, UniProt O75030); assay: reducers of TRPM1 reporter luminescence, concentration series – cell-based, SK-MEL-5, cherry-picked, set 3, MITF inhibitor project, dose response (AID 493073); assay type: functional;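 note: SK-MEL-5 melanoma cells with luciferase driven by the MITF target TRPM1 promoter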
T2 sequence (O75030 whole entry): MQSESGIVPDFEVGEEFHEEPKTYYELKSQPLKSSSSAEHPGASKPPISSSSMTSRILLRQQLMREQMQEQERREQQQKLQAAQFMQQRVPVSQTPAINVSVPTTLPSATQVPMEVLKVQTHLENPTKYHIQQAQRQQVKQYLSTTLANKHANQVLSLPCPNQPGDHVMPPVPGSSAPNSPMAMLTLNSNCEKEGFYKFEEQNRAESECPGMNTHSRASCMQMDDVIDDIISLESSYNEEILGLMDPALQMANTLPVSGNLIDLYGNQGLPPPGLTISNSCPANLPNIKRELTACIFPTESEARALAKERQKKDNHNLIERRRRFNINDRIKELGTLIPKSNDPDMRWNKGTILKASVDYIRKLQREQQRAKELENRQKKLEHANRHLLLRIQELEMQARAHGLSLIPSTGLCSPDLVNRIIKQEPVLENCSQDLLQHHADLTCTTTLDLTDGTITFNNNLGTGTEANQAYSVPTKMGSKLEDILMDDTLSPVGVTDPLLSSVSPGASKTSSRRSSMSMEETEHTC

[8] = test system: Streptococcus sp. 'group A'; assay: Streptococcus pyogenes SK(-)GAS viability under kanamycin – luminescence, BacTiterGlo, confirmation, counter-screen for streptokinase expression inhibitor project, dose response (AID 1900); assay type: functional, organism-based
Streptococcus = assay: GAS UMAA2166 growth inhibition – luminescence, BacTiterGlo, counter-screen for streptokinase expression inhibitor project, dose response (AID 1915); assay type: functional, organism-based;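 note: potency for reduction of bacterial viability or growth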
Streptokinase A = molecular target: T3, Streptokinase A (Streptococcus pyogenes serotype M1, UniProt P10520); assay: viability-normalized secreted streptokinase activity reduction – plasminogen activation absorbance, OD405, dose response (AID 1914); assay type: functional, Streptococcus pyogenes M1 GAS;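 note: secreted streptokinase activity via plasminogen activation per viability signal from cell pellet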
T3 sequence (P10520 whole entry): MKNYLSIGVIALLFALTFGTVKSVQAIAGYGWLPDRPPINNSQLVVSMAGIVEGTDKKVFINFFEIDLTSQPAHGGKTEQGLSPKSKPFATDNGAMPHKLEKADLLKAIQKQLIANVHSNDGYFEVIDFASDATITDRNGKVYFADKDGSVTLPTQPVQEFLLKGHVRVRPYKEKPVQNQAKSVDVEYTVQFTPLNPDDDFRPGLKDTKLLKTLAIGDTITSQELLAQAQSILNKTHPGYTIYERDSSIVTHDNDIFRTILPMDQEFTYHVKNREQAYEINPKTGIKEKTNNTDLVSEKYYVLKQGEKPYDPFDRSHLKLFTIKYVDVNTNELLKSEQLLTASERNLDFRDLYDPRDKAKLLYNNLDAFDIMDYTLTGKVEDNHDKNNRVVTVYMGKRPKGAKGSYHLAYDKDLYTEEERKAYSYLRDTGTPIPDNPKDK

INS1 = assay: INS-1E survival protection against cytokine death – cell-based, luminescence, retest, dose response (AID 449756); assay type: functional; conditions: Rattus norvegicus;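 note: cell death triggered by IL-1 beta plus TNF-alpha plus IFN-gamma mixture; protective hits raise ATP signal compared with cytokine alone wells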
P388 = assay: cells; assay type: functional; conditions: Mus musculus
SN12K1 = assay: cells; assay type: functional; conditions: Homo sapiens
P388/ADR = assay: cells; assay type: functional; conditions: Mus musculus

Compound: O=C(CSc1nc2nccnc2c(=O)n1Cc1cccs1)Nc1ccccc1F
- EC50 [1]: > 260 µM (inactive)

Compound: COc1ccc(OC)c(C(=O)/C=C/c2cccnc2)c1
- CC50 (Vero): 17 µM (active)

Compound: CC1=Nc2cc(C(=O)NCC3CCCO3)ccc2Sc2ccc(Br)cc21 (centres undefined)
- EC50 (H4): 17.8 µM (active)
- EC50 [2]: > 195 µM (not active)
- EC50 [3]: > 120 µM (not active)
- EC50 [4]: > 120 µM (not active)

Compound: CCOc1cccc2c1OC(c1cc(OC)c(OC)c(OC)c1)N1N=C(c3ccc(C)o3)CC21 (centres undefined)
- EC50 (H4): 8.82 µM (active)
- EC50 [3]: 28.3 µM (active)
- EC50 [4]: 32 µM (active)

Compound: CSc1nc(NC(C)(C)C)nc(Oc2ccc(O)nn2)n1
- EC50 [1]: > 260 µM (inactive)

Compound: COc1cc2cc(CN(CCO)S(=O)(=O)c3ccccc3Cl)c(O)nc2cc1OC
- EC50 [5]: > 112 µM (not active)
- EC50 [6]: > 112 µM (not active)

Compound: Oc1nc2cc3c(cc2cc1CN(CCc1ccccc1)Cc1nnnn1C1CCCC1)OCCO3
- EC50 [5]: > 112 µM (not active)
- EC50 [6]: > 112 µM (not active)

Compound: c1ccc(C[n+]2cccc3c4ccccc4ccc32)cc1
- AC50 [7]: 3.41 µM (active)

Compound: CN1CCN(CC(=O)N(C)c2nc(-c3ccccc3)cs2)CC1
- EC50 [3]: 1.22 µM (active)
- EC50 [4]: 1.12 µM (active)

Compound: COc1ccc(/C=C/C(=O)NC(=S)NNC(=O)[C@H]2C[C@@H]2c2ccccc2)cc1OC
- EC50 [8]: 0.57 µM (active)
- EC50 (Streptococcus): 20.4 µM (active)
- EC50 (Streptokinase A): > 150 µM (not active)
- CC50 (Vero): > 25 µM (active)

Compound: CCOC(=O)c1c(NC(=O)CSc2nc3ccccc3o2)sc(C)c1C
- EC50 [1]: > 260 µM (inactive)

Compound: CCc1ccc(S(=O)(=O)NCCc2cn3ccsc3n2)s1
- EC50 [5]: > 112 µM (not active)
- EC50 [6]: > 112 µM (not active)

Compound: CCOC(=O)c1cc(-c2ccccc2)nn1Cc1cc(CC)no1
- EC50 (H4): 89.1 µM (active)
- EC50 [3]: 7.3 µM (active)
- EC50 [4]: 12.4 µM (active)

Compound: COc1ccc(NC(=O)c2cc(S(=O)(=O)N3CCc4ccccc43)cn2C)cc1OC
- EC50 [5]: > 112 µM (not active)
- EC50 [6]: > 112 µM (not active)

Compound: COc1ccccc1CNC(=O)c1ccc(NS(=O)(=O)c2cccs2)cc1
- EC50 [1]: > 260 µM (inactive)

Compound: CCn1c(=O)cc(N2CCN(Cc3ccccc3)CC2)[nH]c1=O
- EC50 [5]: > 112 µM (not active)
- EC50 [6]: > 112 µM (not active)

Compound: COc1cccc(NC(=O)CSc2nc3c4ccccc4nc-3c(O)n2C)c1
- EC50 [1]: > 260 µM (inactive)

Compound: Cc1ccc(C(=O)N/C(=C\c2ccc(-c3cccc([N+](=O)[O-])c3)o2)C(=O)NCCCN2CCOCC2)cc1
- CC50 (Vero): > 25 µM (active)

Compound: COc1ccc(N2CCN(CC(=O)c3ccc(O)cc3O)CC2)cc1
- EC50 [5]: > 112 µM (not active)
- EC50 [6]: > 112 µM (not active)

Compound: c1ccc(C(c2ccccc2)N2CCN(Cc3nnnn3C3CCCC3)CC2)cc1
- EC50 [5]: > 112 µM (not active)
- EC50 [6]: > 112 µM (not active)

Compound: O=C(Nc1ccc(N2CCOCC2)cc1)c1nc2ccccc2s1
- EC50 [5]: 5.93 µM (active)
- EC50 [6]: 16.4 µM (active)

Compound: COc1cc(C)c(S(=O)(=O)N2CCN=C2c2ccccc2)cc1C
- EC50 [1]: > 260 µM (inactive)

Compound: O=C(Cn1ncc(N2CCOCC2)c(Br)c1=O)c1ccc(Cl)cc1
- EC50 (H4): 17 µM (active)
- EC50 [3]: 7.93 µM (active)
- EC50 [4]: > 120 µM (not active)

Compound: CCCN1CCC(=O)N([C@H](CSc2ccc(C)cc2)c2ccccc2)CC1
- EC50 (H4): 7.04 µM (active)
- EC50 [3]: 5.58 µM (active)
- EC50 [4]: 8.36 µM (active)

Compound: CCN1CCc2c(sc(NC(=O)c3ccc(S(=O)(=O)N4CCCCCC4)cc3)c2C(=O)NC)C1
- AC50 [7]: 16.6 µM (active)

Compound: CN1/C(=C\C(=O)C[n+]2cccc(Br)c2)C(C)(C)c2ccccc21
- AC50 (INS1): 5.62 µM (active)

Compound: CN1N=C(C(=O)N2CCc3c([nH]c4ccccc34)C2c2ccccc2Cl)CCC1=O (centres undefined)
- EC50 (H4): 9.56 µM (active)
- EC50 [3]: 10.8 µM (active)
- EC50 [4]: 13.2 µM (active)

Compound: Cc1ccccc1C(=O)NCCOc1ccccc1Cl
- EC50 [1]: 25.5 µM (active)

Compound: NC(=O)c1ccc(NC(=O)CC23CC4CC(CC(Br)(C4)C2)C3)cc1
- EC50 [1]: > 260 µM (inactive)

Compound: CCOC(=O)CC1(C)NC(C(=O)O)C(C)(C)S1 (centres undefined)
- CC50 (Vero): > 25 µM (active)

Compound: Cc1ccc(N2C(=O)CCC2(C#N)c2ccccc2)cc1 (centres undefined)
- EC50 [1]: > 260 µM (inactive)

Compound: O=C1NC(=S)NC(=O)C1=Cc1c[nH]c2ccccc12
- CC50 (Vero): > 25 µM (active)

Compound: Cc1ccccc1N(C(=O)c1csnn1)C(C(=O)NC(C)(C)C)c1ccncc1 (centres undefined)
- EC50 [1]: > 260 µM (inactive)

Compound: Cc1ccccc1C(=O)O/N=C1\CCS(=O)(=O)c2sccc21
- EC50 [1]: 0.943 µM (active)

Compound: CC(C)(C)c1cccc(/C=N/O)c1O
- EC50 [1]: > 260 µM (inactive)

Compound: CCOC(=O)C(C)/C(C)=N/NC(=O)c1cc2ccccc2cc1O (centres undefined)
- AC50 (INS1): 14.8 µM (active)

Compound: CSCC[C@H](NC(=O)C(CC(C)C)NC(=O)[C@H](Cc1c[nH]cn1)NC(=O)CNC(=O)[C@@H](NC(=O)[C@@H](C)NC(=O)[C@H](Cc1c[nH]c2ccccc12)NC(=O)[C@H](CCC(N)=O)NC(=O)[C@@H](N)CC(N)=O)C(C)(C)SC)C(N)=O (some centres undefined) (H-NQW[dA][Pen](Me)GH[ξL]M-NH2)
- GI50 (P388): > 100 µM (inactive)
- GI50 (SN12K1): > 100 µM (inactive)
- GI50 (P388/ADR): > 100 µM (inactive)

Compound: O=C1CN2Cc3c(ccc(Cl)c3Cl)N=C2N1 [ANAGRELIDE HYDROCHLORIDE]
- EC50 [5]: 0.722 µM (active)
- EC50 [6]: > 112 µM (not active)

Compound: NCCCC(N)(C(=O)O)C(F)F (centres undefined) [EFLORNITHINE]
- GI50 (P388): 275 µM (inactive)
- GI50 (SN12K1): 1400 µM (inactive)
- GI50 (P388/ADR): > 1840 µM (inactive)
